Test results published in patent US9487516B2, “Antibacterial oxadiazolone derivatives” (priority 2013, dated 2016).
In brackets after ≈: the same amount, converted by molar mass.

How the values were obtained:
Test in all cases: Bacterial growth minimal inhibitory concentration (microdilution, cation-adjusted Mueller-Hinton Broth)
Format in all cases: cell-based
[1] = test system: Acinetobacter baumanii T6474; settings: Acinetobacter baumannii, multiply-resistant strain (in particular quinolone-resistant)
Protocol: (§1) Minimal Inhibitory Concentrations (MICs; mg/L) were determined in cation-adjusted MuellerHinton Broth by a microdilution method following the description given in “Methods for Dilution Antimicrobial Susceptibility Tests for Bacteria that Grow Aerobically”, Approved standard, 7th ed., Clinical and Laboratory Standards Institute (CLSI) Document M7-A7, Wayne, Pa., USA, 2006.
(§2) All Example compounds were tested against several Gram positive and Gram negative bacteria. […] Staphylococcus aureus A798, Enterococcus faecium A949 and Acinetobacter baumanii T6474 are multiply-resistant strains (in particular quinolone-resistant), while Moraxella catarrhalis A894 is a quinolone-sensitive strain and Staphylococcus aureus ATCC29213 is a methicillin-sensitive and quinolone-sensitive strain.

[2] = test system: Enterococcus faecium A949; settings: multiply-resistant strain (in particular quinolone-resistant), read-out: MIC for E. faecium A949
Protocol: as §1, §2

[3] = test system: Moraxella catarrhalis A894; settings: quinolone-sensitive strain
Protocol: as §1, §2

[4] = test system: Staphylococcus aureus A798; settings: multiply-resistant strain (in particular quinolone-resistant), read-out: MIC for S. aureus A798
Protocol: as §1, §2

[5] = test system: Staphylococcus aureus ATCC29213; settings: methicillin-sensitive and quinolone-sensitive strain, read-out: MIC for S. aureus ATCC29213
Protocol: as §1, §2

| SMILES | MIC [1] | MIC [2] | MIC [3] | MIC [4] | MIC [5] |
| --- | --- | --- | --- | --- | --- |
| O=C1COc2ccc(-n3nc(CCCN[C@H]4Cn5c(=O)cnc6cccc4c65)oc3=O)nc2N1 [Example 36, (R)-6-{3-[5-oxo-4-(3-oxo-3,4-dihydro-2H-pyrido[3,2-b][1,4]oxazin-6-yl)-4,5-dihydro-[1,3,4]oxadiazol-2-yl]-propylamino}-5,6-dihydro-pyrrolo[1,2,3-de]quinoxalin-3-one] | 4 µg/mL (≈ 8.67 µM) | 8 µg/mL (≈ 17.3 µM) | 2 µg/mL (≈ 4.33 µM) | 4 µg/mL (≈ 8.67 µM) | 4 µg/mL (≈ 8.67 µM) |
| O=C1COc2ccc(-n3nc(CCCN[C@@H]4Cn5c(=O)ccc6ncc(F)c4c65)oc3=O)nc2N1 [Example 37, (S)-3-fluoro-4-{3-[5-oxo-4-(3-oxo-3,4-dihydro-2H-pyrido[3,2-b][1,4]oxazin-6-yl)-4,5-dihydro-[1,3,4]oxadiazol-2-yl]-propylamino}-4,5-dihydro-pyrrolo[3,2,1-de][1,5]naphthyridin-7-one] | 2 µg/mL (≈ 4.17 µM) | 4 µg/mL (≈ 8.34 µM) | 0.125 µg/mL (≈ 0.261 µM) | 0.25 µg/mL (≈ 0.521 µM) | 0.25 µg/mL (≈ 0.521 µM) |
| O=C1COc2ccc(-n3nc(CCCN[C@H]4Cn5c(=O)ccc6ncc(F)c4c65)oc3=O)nc2N1 [Example 38, (R)-3-fluoro-4-{3-[5-oxo-4-(3-oxo-3,4-dihydro-2H-pyrido[3,2-b][1,4]oxazin-6-yl)-4,5-dihydro-[1,3,4]oxadiazol-2-yl]-propylamino}-4,5-dihydro-pyrrolo[3,2,1-de][1,5]naphthyridin-7-one] | 2 µg/mL (≈ 4.17 µM) | 4 µg/mL (≈ 8.34 µM) | 0.5 µg/mL (≈ 1.04 µM) | 0.5 µg/mL (≈ 1.04 µM) | 0.5 µg/mL (≈ 1.04 µM) |
| Cc1ccc2ccc(=O)n3c2c1[C@H](NCCCc1nn(-c2ccc4c(n2)NC(=O)CO4)c(=O)o1)C3 [Example 40, (S)-9-methyl-1-{3-[5-oxo-4-(3-oxo-3,4-dihydro-2H-pyrido[3,2-b][1,4]oxazin-6-yl)-4,5-dihydro-[1,3,4]oxadiazol-2-yl]-propylamino}-1,2-dihydro-pyrrolo[3,2,1-ij]quinolin-4-one] | 2 µg/mL (≈ 4.22 µM) | 2 µg/mL (≈ 4.22 µM) | 0.5 µg/mL (≈ 1.05 µM) | 2 µg/mL (≈ 4.22 µM) | 1 µg/mL (≈ 2.11 µM) |

These reach a lower MIC [1]. Values come first.

| MIC [1] | MIC [2] | MIC [3] | MIC [4] | MIC [5] | SMILES |
| --- | --- | --- | --- | --- | --- |
| 1 µg/mL (≈ 2.04 µM) | 8 µg/mL (≈ 16.3 µM) | 1 µg/mL (≈ 2.04 µM) | 2 µg/mL (≈ 4.08 µM) | 1 µg/mL (≈ 2.04 µM) | COc1ccc2ccc(=O)n3c2c1[C@H](NCCCc1nn(-c2ccc4c(n2)NC(=O)CO4)c(=O)o1)C3 [Example 39, (S)-9-methoxy-1-{3-[5-oxo-4-(3-oxo-3,4-dihydro-2H-pyrido[3,2-b][1,4]oxazin-6-yl)-4,5-dihydro-[1,3,4]oxadiazol-2-yl]-propylamino}-1,2-dihydro-pyrrolo[3,2,1-ij]quinolin-4-one] |
| 0.125 µg/mL (≈ 0.257 µM) | 0.5 µg/mL (≈ 1.03 µM) | 0.063 µg/mL (≈ 0.13 µM) | 0.125 µg/mL (≈ 0.257 µM) | 0.063 µg/mL (≈ 0.13 µM) | N#Cc1ccc2ccc(=O)n3c2c1[C@H](NCCCc1nn(-c2ccc4c(n2)NC(=O)CO4)c(=O)o1)C3 [Example 41, (S)-4-oxo-1-{3-[5-oxo-4-(3-oxo-3,4-dihydro-2H-pyrido[3,2-b][1,4]oxazin-6-yl)-4,5-dihydro-[1,3,4]oxadiazol-2-yl]-propylamino}-1,2-dihydro-4H-pyrrolo[3,2,1-ij]quinoline-9-carbonitrile] |
